The values below come from PubChem BioAssay (NCI).

Each structure is given as a SMILES string. Where “and” joins values, the source holds several entries; their conditions need not be identical. Identical values can stand only once.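 Five concentrations, 48 hours, 96-well plates. Here, GI50 denotes the concentration required for 50% inhibition of growth. TGI marks complete inhibition of growth.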 Some results are limits rather than exact numbers.

Holding throughout (test): inhibition of tumour cell growth, NCI panel, 48 h
In assay [1] the test system is MCF7 breast.
Assay [2] concerns BT-549 breast.
Assay [3] deals with IGROV1 ovarian.
Assay [4] concerns HOP-92 NSCLC.
The subject of assay [5] is SK-MEL-28 melanoma.
Assay [6] concerns HS 578T breast.
For assay [7], the system named is MDA-MB-231 breast.
Assay [8] relates to SN12C renal.
Assay [9] has as its system MOLT-4 leukemia.
For assay [10], the system named is CAKI-1 renal.

With `CN(C)CCCSc1ccccc1NC1=C(Cl)C(=O)C(Nc2ccccc2SCCCN(C)C)=C(Cl)C1=O`, the GI50 in assay [1] is 1.65 µM; in assay [2], 1.46 µM; in assay [3], 1.39 µM; in [4] it was 1.48 µM; in assay [5] it was 1.67 µM; in assay [6], 3.14 µM. Also, the GI50 in [7] is 1.78 µM; in assay [8], 1.72 µM; in [9], 0.41 µM. Further, the TGI in assay [1] amounted to 3.94 µM; in [2], 2.87 µM; in [3], 3.44 µM; in assay [4] it was 3.06 µM; in assay [5], 3.12 µM; in assay [6] it was 21.4 µM. The TGI in assay [7] came to 3.38 µM; in [8], 3.18 µM; in assay [9], 2.68 µM.

Consider `O=c1c2ccccc2c(/C=N\NC2=NCCN2)c2oc3ccccc3n12`, for which the GI50 in assay [1] was 18.5 µM; in [2], 31.3 µM; in assay [10], 27.2 µM; in assay [4], 22.5 µM; in assay [5], 20.7 µM; in [7], 16.7 µM. For the same molecule, the results for the GI50 in assay [8] and in [9] were 11.2 µM and 23.8 µM, respectively. The TGI is 40.8 µM in assay [1]; greater than 100 µM in assay [2]; greater than 100 µM in assay [10]; 51.1 µM in assay [4]; 49 µM in [5]; 35 µM in assay [7]. The TGI was 27.7 µM in [8] and greater than 100 µM in assay [9].

Turning to `N#Cc1c(NC(=O)c2ccc(F)cc2)sc2c1CCCC2`, the GI50 in assay [1], in assay [2], in [3], in assay [10], in assay [4] and in [5] was greater than 25 µM each time. Further, the GI50 in assay [6], in [7], in assay [8] and in assay [9] was greater than 25 µM each time. Further, the TGI in assay [1], in [2], in assay [3], in assay [10], in assay [4] and in assay [5] was greater than 25 µM each time. The TGI in assay [6], in assay [7], in assay [8] and in assay [9] was greater than 25 µM each time.

For `COCCOC1=CC(=O)c2c(O)ccc(O)c2C1=O`, the GI50 in assay [1] is 0.51 µM; in [10], 1.68 µM; in [4], 1.54 µM; in assay [5], 1.75 µM; in assay [7], 2.45 µM; in assay [8] it was 1.46 µM. Besides, the GI50 in [9] is 1.44 µM. For the same molecule, the TGI was 0.933 µM and 1.92 µM in assay [1]; 3.17 µM in assay [2]; 3.11 µM and 2.97 µM in [3]; 4.37 µM and 3.14 µM in [10]; 3.7 µM and 3.59 µM in assay [4]; 2.9 µM and 3.37 µM in assay [5]. Besides, the TGI in assay [6] is 6.88 µM; in assay [7], 3.23 µM and 6.14 µM; in [8] it was 3.03 µM and 2.83 µM; in assay [9] it was 8.03 µM and 3.53 µM.

In the case of `Cc1ccc(C=C2C(Cl)=C(Cl)C(Cl)=C2Cl)cc1`, the GI50 was 0.39 µM in [1]; 0.882 µM in assay [2]; 0.553 µM in assay [3]; 0.503 µM in [10]; 1.33 µM in assay [4]; 1.25 µM in [5]. Moreover, the GI50 in [6] is 0.636 µM; in assay [7], 1.22 µM; in [8], 0.832 µM; in assay [9], 0.186 µM. Also, the TGI turned out to be 2.37 µM in assay [1]; 3.32 µM in [2]; 1.64 µM in assay [3]; 2.16 µM in assay [10]; 4.35 µM in assay [4]; 2.64 µM in [5]. Also, the TGI was found to be 7.56 µM in assay [6], 4.76 µM in assay [7], 3.02 µM in assay [8] and 0.493 µM in assay [9].

As to `COC(=O)c1ccc(/C=C(\c2ccc([N+](=O)[O-])o2)S(=O)(=O)c2ccc(NC(C)=O)cc2)o1`, the TGI in assay [1] was found to be 29.3 µM; in assay [2], 5.43 µM; in [3], 28.4 µM; in [10], 29.4 µM; in assay [4], 24 µM; in assay [5] it was 17.6 µM. The TGI came out at 6.34 µM in [6], 5.77 µM in [7], 1.36 µM in assay [8] and 7.76 µM in [9].

In the case of `C#CC(=O)Nc1cccc2c1cc(C)n2-c1nc2c(c(NCc3ccccc3)n1)CCCC2`, the GI50 in assay [1] was 0.226 µM; in assay [2], 0.137 µM; in assay [10], 0.478 µM; in [4], 0.142 µM; in assay [5] it was 1.22 µM; in [6] it was 0.353 µM. Moreover, the GI50 in assay [7] was 0.0578 µM; in assay [8], 0.0706 µM; in [9], 0.15 µM. Further, the TGI in assay [1] was determined as 1.23 µM; in assay [2], 0.324 µM; in assay [10], 0.942 µM; in [4], 0.315 µM; in assay [5], 2.79 µM; in assay [6], 3.07 µM. The TGI in assay [7] stood at 0.261 µM; in assay [8] it was 0.427 µM; in assay [9] it was 0.443 µM.

Regarding `N#CC(C#N)=C1CCOc2ccc(F)cc21`, the GI50 in assay [1] was 11.3 µM; in [2], 53.4 µM; in assay [3], 17.4 µM; in assay [10], 15.4 µM; in assay [4] it was 2.05 µM; in assay [5], greater than 100 µM. The GI50 in assay [6] was 0.289 µM; in [7] it was 13 µM; in assay [8], 19.8 µM; in assay [9] it was 16.2 µM. In addition, the TGI in [1] was 23.3 µM; in assay [2], greater than 100 µM; in assay [3], 57 µM; in assay [10] it was 51.9 µM; in assay [4], 15.9 µM; in [5], greater than 100 µM. Further, the TGI in assay [6] is 41.6 µM; in [7], 25.7 µM; in assay [8], 40.1 µM; in assay [9] it was 29.7 µM.

As for `COc1ccc(NC2=C(I)C(=O)c3ncccc3C2=O)cc1`, the GI50 in [2] was 1.27 µM; in assay [3], 0.417 µM; in assay [10], 1.21 µM; in assay [4], 1.48 µM; in [5] it was 1.66 µM; in assay [6], 0.834 µM. The GI50 in assay [7] is 2.08 µM; in [8], 1.05 µM; in assay [9] it was 2.06 µM. The TGI was 2.59 µM in [2]; 1.93 µM in [3]; 2.62 µM in [10]; 3.78 µM in assay [4]; 3.3 µM in assay [5]; 5.04 µM in [6]. The TGI in assay [7] came out at 7.64 µM; in [8], 2.27 µM; in assay [9], 5.79 µM.

As for `COc1ccc(CCN(CC(=O)N(CC(N)=O)C2CCC[C@@H]2OCc2ccccc2)C(=O)CN(C(=O)CN(CCc2ccc(Cl)cc2)C(=O)CN(C(=O)CN(C)Cc2ccccc2F)[C@H](C)C2CCCCC2)[C@H](C)C2CCCCC2)cc1OC` (some centres not stated), the GI50 in assay [1] is 1.17 µM; in assay [2], 1.61 µM; in [3], 1.68 µM; in [4], 1.3 µM; in assay [5] it was 1.89 µM; in [6] it was 7.26 µM. For the same molecule, the figures for the GI50 in [7], in [8] and in assay [9] were 2.89 µM, 2.13 µM and 0.689 µM, respectively. Moreover, the TGI in assay [1] is greater than 50 µM; in assay [2], 15.6 µM; in [3], greater than 50 µM; in assay [4], 31.3 µM; in [5], greater than 50 µM; in assay [6], greater than 50 µM. Further, the TGI was greater than 50 µM in assay [7], greater than 50 µM in assay [8] and 2.46 µM in [9].

Take `COc1ccc(C2CC(c3ccc(Nc4ccnc5cc(Cl)ccc45)cc3)=NN2C=O)cc1` (configuration not stated): the GI50 is 8.78 µM in assay [1]; 10.9 µM in assay [2]; 43.1 µM in assay [3]; greater than 100 µM in assay [10]; 20.9 µM in assay [5]; greater than 100 µM in [6]. Besides, the GI50 is 20.1 µM in [7], 12.6 µM in [8] and 2.55 µM in assay [9]. Moreover, the TGI is greater than 100 µM in [1]; 36.6 µM in [2]; greater than 100 µM in assay [3]; greater than 100 µM in assay [10]; 90.9 µM in [5]; greater than 100 µM in assay [6]. For the same molecule, the TGI is greater than 100 µM in assay [7], greater than 100 µM in [8] and 16.7 µM in assay [9].

Consider `CCCCCCn1c(SC)nc(COC(=O)NC)c1COC(=O)NC`, for which the TGI is 38 µM in [1]; 34 µM in assay [2]; 30.5 µM in [3]; 29.1 µM in assay [10]; 32.4 µM in assay [5]; 40.3 µM in assay [6]. Besides, the TGI in [7] is 32.8 µM; in assay [8], 31.3 µM; in assay [9] it was 53.8 µM.

Turning to `O=C(O)c1cc(=O)cc(C(=O)O)o1`, the GI50 in assay [1], in [2], in assay [3], in assay [10], in assay [4] and in [5] was greater than 100 µM each time. The GI50 in [6] and in assay [9] was greater than 100 µM in each case. Also, the TGI in assay [1], in assay [2], in assay [3], in assay [10], in assay [4] and in assay [5] was greater than 100 µM each time. Further, the TGI in assay [6] and in [9] was greater than 100 µM throughout.

Regarding `Cc1cnc2oc3ccc(O)cc3c2c1-c1ccccc1`, the GI50 was 41 µM in assay [1]; 19.8 µM in assay [2]; 47 µM in [3]; 58.6 µM in assay [10]; 3.34 µM in assay [4]; greater than 100 µM in assay [5]. In addition, the values for the GI50 in [6], in [7] and in [8] were 19.6 µM, 3.54 µM and 10 µM, respectively. Further, the TGI in assay [1] was greater than 100 µM; in assay [2] it was 98.8 µM; in [3], greater than 100 µM; in assay [10], greater than 100 µM; in [4], 38.5 µM; in [5] it was greater than 100 µM. For the same molecule, the TGI in assay [6] is 74.4 µM; in assay [7], greater than 100 µM; in assay [8], 47.3 µM.

`C=C1C(=O)O[C@H]2[C@H](OC(C)=O)[C@@H](C)CCCC3(C)OC3CCC3(CO3)[C@H](O)C[C@@H]12` (some centres not stated): the GI50 was 5.02 µM in assay [1]; 11.4 µM in assay [2]; 13.9 µM in assay [3]; 12.1 µM in assay [10]; 8.36 µM in [5]; 11.8 µM in [6]. Besides, the GI50 in assay [7] was 8.22 µM; in assay [8], 10.4 µM; in assay [9], 1.73 µM. Further, the TGI was 28.7 µM in [1]; 32 µM in [2]; 38.7 µM in [3]; 27.8 µM in [10]; 41.6 µM in [5]; 43.4 µM in [6]. For the same molecule, the TGI in [7] stood at 23.9 µM; in assay [8], 24.8 µM; in assay [9] it was 4.14 µM.

With `COc1cc(N2C(=O)[C@H](c3ccccc3)C2c2ccc(SC)cc2)cc(OC)c1OC` (some centres not stated), the GI50 in assay [1] is 0.0352 µM; in assay [2], 0.0299 µM; in [3] it was 0.0432 µM; in assay [10], 0.0463 µM; in assay [4], 0.031 µM; in [6] it was 0.0653 µM. Further, the GI50 is 0.0321 µM in assay [7], 0.05 µM in assay [8] and 0.04 µM in assay [9]. For the same molecule, the TGI in assay [1] was greater than 100 µM; in assay [2] it was 0.0937 µM; in assay [3], greater than 100 µM; in assay [10] it was greater than 100 µM; in assay [4], 16.5 µM; in [6], greater than 100 µM. Further, the results for the TGI in [7], in assay [8] and in assay [9] were 15.2 µM, greater than 100 µM and greater than 100 µM, respectively.
